In ChEMBL document CHEMBL3091276, “Design, synthesis and evaluation of 6-(4-((substituted-1H-1,2,3-triazol-4-yl)methyl)piperazin-1-yl)phenanthridine analogues as antimycobacterial agents” (Bioorg Med Chem Lett, 2013):
≈ marks a conversion by molar mass, not a printed value.

Columns and labels:
[1] = tested on: Mycobacterium tuberculosis; test: Antimycobacterial activity in Mycobacterium tuberculosis H37Rv after 5 days by Alamar Blue assay; type: functional; details: 120 h
[2] = Cytotoxicity against mouse RAW264.7 cells at 50 ug/ml by MTT assay relative to control; type: cell-based; details: read-out: INH
[3] = Selectivity index, ratio of IC50 for mouse RAW264.7 cells to MIC99 for Mycobacterium tuberculosis H37Rv; type: toxicity; details: read-out: Selectivity Index
RAW264.7 = test: Cytotoxicity against mouse RAW264.7 cells by MTT assay; type: cell-based

Row | Compound | MIC99 [1] [µg/mL] | cytotoxicity at 50 ug/ml [2] [%] | selectivity ratio [3] | IC50 (RAW264.7) [µg/mL]
1 | c1ccc(Cn2cc(CN3CCN(c4nc5ccccc5c5ccccc45)CC3)nn2)cc1 | 50 (≈ 115 µM) | – | – | –
2 | CCc1ccc(-n2cc(CN3CCN(c4nc5ccccc5c5ccccc45)CC3)nn2)cc1 | 50 (≈ 111 µM) | – | – | –
3 | Cc1ccc(-n2cc(CN3CCN(c4nc5ccccc5c5ccccc45)CC3)nn2)c(C)c1 | 12.5 (≈ 27.9 µM) | – | – | –
4 | c1ccc2c(c1)nc(N1CCN(Cc3cn(-c4ccc5c(c4)OCO5)nn3)CC1)c1ccccc12 | 50 (≈ 108 µM) | – | – | –
5 | COc1cccc(-n2cc(CN3CCN(c4nc5ccccc5c5ccccc45)CC3)nn2)c1 | 50 (≈ 111 µM) | – | – | –
6 | COc1ccc(-n2cc(CN3CCN(c4nc5ccccc5c5ccccc45)CC3)nn2)cc1 | 3.12 (≈ 6.94 µM) | 19.2 | > 15 | > 125
7 | Clc1ccc(-n2cc(CN3CCN(c4nc5ccccc5c5ccccc45)CC3)nn2)cc1Cl | 50 (≈ 102 µM) | – | – | –
8 | Clc1ccc(-n2cc(CN3CCN(c4nc5ccccc5c5ccccc45)CC3)nn2)cc1 | 25 (≈ 54.9 µM) | – | – | –
9 | Clc1ccccc1-n1cc(CN2CCN(c3nc4ccccc4c4ccccc34)CC2)nn1 | 12.5 (≈ 27.5 µM) | – | – | –
10 | Clc1cccc(-n2cc(CN3CCN(c4nc5ccccc5c5ccccc45)CC3)nn2)c1 | 3.12 (≈ 6.87 µM) | 12.6 | > 20 | > 150
11 | Brc1ccccc1-n1cc(CN2CCN(c3nc4ccccc4c4ccccc34)CC2)nn1 | 50 (≈ 100 µM) | – | – | –
12 | Brc1ccc(-n2cc(CN3CCN(c4nc5ccccc5c5ccccc45)CC3)nn2)cc1 | 12.5 (≈ 25 µM) | – | – | –
13 | Fc1ccc(-n2cc(CN3CCN(c4nc5ccccc5c5ccccc45)CC3)nn2)cc1Cl | 50 (≈ 106 µM) | – | – | –
14 | Fc1ccc(-n2cc(CN3CCN(c4nc5ccccc5c5ccccc45)CC3)nn2)cc1F | 25 (≈ 54.8 µM) | – | – | –
15 | Fc1ccc(-n2cc(CN3CCN(c4nc5ccccc5c5ccccc45)CC3)nn2)cc1 | 25 (≈ 57 µM) | – | – | –
16 | FC(F)(F)c1cccc(-n2cc(CN3CCN(c4nc5ccccc5c5ccccc45)CC3)nn2)c1 | 12.5 (≈ 25.6 µM) | – | – | –
17 | O=[N+]([O-])c1cccc(-n2cc(CN3CCN(c4nc5ccccc5c5ccccc45)CC3)nn2)c1 | 6.25 (≈ 13.4 µM) | – | – | –
18 | O=S(=O)(c1ccccc1)n1cc(CN2CCN(c3nc4ccccc4c4ccccc34)CC2)nn1 | 1.56 (≈ 3.22 µM) | 5.82 | > 125 | > 425
19 | Cc1ccc(S(=O)(=O)n2cc(CN3CCN(c4nc5ccccc5c5ccccc45)CC3)nn2)cc1 | 12.5 (≈ 25.1 µM) | – | – | –
20 | NNC(=O)c1ccncc1 [ISONIAZID] | 0.36 (≈ 2.63 µM) | – | – | –
21 | CO[C@H]1/C=C/O[C@@]2(C)Oc3c(C)c(O)c4c(O)c(c(/C=N/N5CCN(C)CC5)c(O)c4c3C2=O)NC(=O)/C(C)=C\C=C\[C@H](C)[C@H](O)[C@@H](C)[C@@H](O)[C@@H](C)[C@H](OC(C)=O)[C@@H]1C [RIFAMPIN] | 0.02 (≈ 0.0243 µM) | – | – | –
